{"source": "patent US6797255B1", "about": "“Methods and compositions for enhancing magnetic resonance imaging” (Mallinckrodt Inc., priority 1985, dated 2004)", "key": {"[1]": {"assay": "Relaxation parameters T1 and T2 of a 10^−3M solution in a 90 MHz NMR experiment", "type": "physicochemical", "conditions": "10^−3M solution", "method": "The complex, dihydrogen bis(N-[N′-(2,6-diisopropylphenyl)carbamoylmethyl]iminodiaceto)manganese(II) hydrate, was thus isolated as the hydrated species. The solubility of the complex in water was determined to be approximately 0.1% w/v. The relaxation parameters T1 and T2 of a 10-^−3M solution of the complex in a 90 MHz NMR experiment were determined to be 0.107 sec. and 0.007 sec. respectively. The T1 and T2 values for water are 2.51 sec. and 0.150 sec., respectively.\nThe relaxation parameters T1 and T2 of a 10^−3M solution of the complex in a 90 MHz NMR experiment were determined to be 126 milliseconds and 1.5 milliseconds, respectively."}, "[2]": {"system": "rabbits", "assay": "Tissue proton T1 and T2 relaxation times 15 min after intravenous administration (dose-response)", "type": "in vivo", "conditions": "for T1 relaxation time / T2 relaxation time: 10 mHz RADX", "method": "All experiments employing the complex dihydrogen bis(N-[N′-(2,6-dimethylphenyl)carbamoylmethyl]iminodiaceto)manganese (II) trihydrate were conducted following intravenous administration to rabbits. A 10 mM solution of the complex was used in these studies. Rabbits were anesthetized with ketamine/xylazine prior to treatment. The results given were obtained with a 10 mHz RADX proton spin analyzer.\nDose-response experiments were conducted on rabbits following intravenous injection of 0.01-0.10 mmol of the complex/kg. […]"}, "[3]": {"conditions": "0.01-0.10 mmol/kg i.v., rabbits, 15 min"}, "[4]": {"conditions": "Bladder, 15 min after 0.01 mmol/kg i.v., rabbits"}, "[5]": {"conditions": "Bladder, 15 min after 0.03 mmol/kg i.v., rabbits"}, "[6]": {"conditions": "Bladder, 15 min after 0.08 mmol/kg i.v., rabbits"}, "[7]": {"conditions": "Bladder, 15 min after 0.10 mmol/kg i.v., 1 rabbit"}, "[8]": {"conditions": "Blood, 5 min, 0.01 mmol/kg i.v., rabbits"}, "[9]": {"conditions": "Blood, 5 min, 0.03 mmol/kg i.v., rabbits"}, "[10]": {"conditions": "Blood, 5 min, 0.08 mmol/kg i.v., rabbits"}, "[11]": {"conditions": "Blood, 5 min, 0.10 mmol/kg i.v., 1 rabbit"}, "[12]": {"conditions": "Blood, 10 min, 0.01 mmol/kg i.v., rabbits"}, "[13]": {"conditions": "Blood, 10 min, 0.03 mmol/kg i.v., rabbits"}, "[14]": {"conditions": "Blood, 10 min, 0.08 mmol/kg i.v., rabbits"}, "[15]": {"conditions": "Blood, 10 min, 0.10 mmol/kg i.v., 1 rabbit"}, "[16]": {"conditions": "Blood, 15 min, 0.01 mmol/kg i.v., rabbits"}, "[17]": {"conditions": "Blood, 15 min, 0.03 mmol/kg i.v., rabbits"}, "[18]": {"conditions": "Blood, 15 min, 0.08 mmol/kg i.v., rabbits"}, "[19]": {"conditions": "Fat, 15 min after 0.01 mmol/kg i.v., rabbits"}, "[20]": {"conditions": "Fat, 15 min after 0.03 mmol/kg i.v., rabbits"}, "[21]": {"conditions": "Fat, 15 min after 0.08 mmol/kg i.v., rabbits"}, "[22]": {"conditions": "Fat, 15 min after 0.10 mmol/kg i.v., 1 rabbit"}, "[23]": {"conditions": "Heart, 15 min after 0.01 mmol/kg i.v., rabbits"}, "[24]": {"conditions": "Heart, 15 min after 0.03 mmol/kg i.v., rabbits"}, "[25]": {"conditions": "Heart, 15 min after 0.08 mmol/kg i.v., rabbits"}, "[26]": {"conditions": "Heart, 15 min after 0.10 mmol/kg i.v., 1 rabbit"}, "[27]": {"conditions": "Large Intestine, 15 min after 0.01 mmol/kg i.v., rabbits"}, "[28]": {"conditions": "Large Intestine, 15 min after 0.03 mmol/kg i.v., rabbits"}, "[29]": {"conditions": "Large Intestine, 15 min after 0.08 mmol/kg i.v., rabbits"}, "[30]": {"conditions": "Large Intestine, 15 min after 0.10 mmol/kg i.v., 1 rabbit"}, "[31]": {"conditions": "Large Intestine, rabbits, 15 min"}, "[32]": {"conditions": "Liver, 15 min after 0.01 mmol/kg i.v., rabbits"}, "[33]": {"conditions": "Liver, 15 min after 0.03 mmol/kg i.v., rabbits"}, "[34]": {"conditions": "Liver, 15 min after 0.08 mmol/kg i.v., rabbits"}, "[35]": {"conditions": "Liver, 15 min after 0.10 mmol/kg i.v., 1 rabbit"}}, "data": [{"smiles": "Cc1cccc(C)c1NC(=O)CN(CC(=O)[O-])CC(=O)O.Cc1cccc(C)c1NC(=O)CN(CC(=O)[O-])CC(=O)O.O.O.O.[Mn+2]", "note": "[Example 2]", "values": [{"measurement": "relaxation parameter T1", "setting": "[1]", "result": 126, "unit": "milliseconds"}, {"measurement": "relaxation parameter T2", "setting": "[1]", "result": 1.5, "unit": "milliseconds"}, {"measurement": "effect on tissue T1 relaxation times", "setting": "[2]; [3]", "result": "dose-related decrease"}, {"measurement": "effect on tissue T2 relaxation times", "setting": "[2]; [3]", "result": "minimally affected"}, {"measurement": "T1 relaxation time", "setting": "[2]; [4]", "result": 380, "unit": "ms"}, {"measurement": "T2 relaxation time", "setting": "[2]; [4]", "result": 84, "unit": "ms"}, {"measurement": "T1 relaxation time", "setting": "[2]; [5]", "result": 312, "unit": "ms"}, {"measurement": "T2 relaxation time", "setting": "[2]; [5]", "result": 68, "unit": "ms"}, {"measurement": "T1 relaxation time", "setting": "[2]; [6]", "result": 173, "unit": "ms"}, {"measurement": "T2 relaxation time", "setting": "[2]; [6]", "result": 60, "unit": "ms"}, {"measurement": "T1 relaxation time", "setting": "[2]; [7]", "result": 159, "unit": "ms"}, {"measurement": "T2 relaxation time", "setting": "[2]; [7]", "result": 61, "unit": "ms"}, {"measurement": "Approximate ED50, intravenous dose to reduce tissue T1 by 50%", "setting": "[2]; Bladder, rabbits, 15 min", "result": 0.060, "unit": "mmol/kg"}, {"measurement": "Approximate ED50, intravenous dose to reduce tissue T2 by 50%", "setting": "[2]; Bladder, rabbits, 15 min", "result": 0.51, "unit": "mmol/kg"}, {"measurement": "T1 relaxation time", "setting": "[2]; [8]", "result": 554, "unit": "ms"}, {"measurement": "T2 relaxation time", "setting": "[2]; [8]", "result": 161, "unit": "ms"}, {"measurement": "T1 relaxation time", "setting": "[2]; [9]", "result": 192, "unit": "ms"}, {"measurement": "T2 relaxation time", "setting": "[2]; [9]", "result": 110, "unit": "ms"}, {"measurement": "T1 relaxation time", "setting": "[2]; [10]", "result": 70, "unit": "ms"}, {"measurement": "T2 relaxation time", "setting": "[2]; [10]", "result": 56, "unit": "ms"}, {"measurement": "T1 relaxation time", "setting": "[2]; [11]", "result": 64, "unit": "ms"}, {"measurement": "T2 relaxation time", "setting": "[2]; [11]", "result": 55, "unit": "ms"}, {"measurement": "T1 relaxation time", "setting": "[2]; [12]", "result": 604, "unit": "ms"}, {"measurement": "T2 relaxation time", "setting": "[2]; [12]", "result": 165, "unit": "ms"}, {"measurement": "T1 relaxation time", "setting": "[2]; [13]", "result": 283, "unit": "ms"}, {"measurement": "T2 relaxation time", "setting": "[2]; [13]", "result": 119, "unit": "ms"}, {"measurement": "T1 relaxation time", "setting": "[2]; [14]", "result": 96, "unit": "ms"}, {"measurement": "T2 relaxation time", "setting": "[2]; [14]", "result": 72, "unit": "ms"}, {"measurement": "T1 relaxation time", "setting": "[2]; [15]", "result": 398, "unit": "ms"}, {"measurement": "T2 relaxation time", "setting": "[2]; [15]", "result": 179, "unit": "ms"}, {"measurement": "T1 relaxation time", "setting": "[2]; [16]", "result": 639, "unit": "ms"}, {"measurement": "T2 relaxation time", "setting": "[2]; [16]", "result": 171, "unit": "ms"}, {"measurement": "T1 relaxation time", "setting": "[2]; [17]", "result": 368, "unit": "ms"}, {"measurement": "T2 relaxation time", "setting": "[2]; [17]", "result": 141, "unit": "ms"}, {"measurement": "T1 relaxation time", "setting": "[2]; [18]", "result": 115, "unit": "ms"}, {"measurement": "T2 relaxation time", "setting": "[2]; [18]", "result": 82, "unit": "ms"}, {"measurement": "T1 relaxation time", "setting": "[2]; [19]", "result": 148, "unit": "ms"}, {"measurement": "T2 relaxation time", "setting": "[2]; [19]", "result": 129, "unit": "ms"}, {"measurement": "T1 relaxation time", "setting": "[2]; [20]", "result": 136, "unit": "ms"}, {"measurement": "T2 relaxation time", "setting": "[2]; [20]", "result": 122, "unit": "ms"}, {"measurement": "T1 relaxation time", "setting": "[2]; [21]", "result": 125, "unit": "ms"}, {"measurement": "T2 relaxation time", "setting": "[2]; [21]", "result": 122, "unit": "ms"}, {"measurement": "T1 relaxation time", "setting": "[2]; [22]", "result": 122, "unit": "ms"}, {"measurement": "T2 relaxation time", "setting": "[2]; [22]", "result": 89, "unit": "ms"}, {"measurement": "Approximate ED50, intravenous dose to reduce tissue T1 by 50%", "setting": "[2]; Fat, rabbits, 15 min", "result": 11.94, "unit": "mmol/kg"}, {"measurement": "T1 relaxation time", "setting": "[2]; [23]", "result": 370, "unit": "ms"}, {"measurement": "T2 relaxation time", "setting": "[2]; [23]", "result": 64, "unit": "ms"}, {"measurement": "T1 relaxation time", "setting": "[2]; [24]", "result": 222, "unit": "ms"}, {"measurement": "T2 relaxation time", "setting": "[2]; [24]", "result": 56, "unit": "ms"}, {"measurement": "T1 relaxation time", "setting": "[2]; [25]", "result": 104, "unit": "ms"}, {"measurement": "T2 relaxation time", "setting": "[2]; [25]", "result": 43, "unit": "ms"}, {"measurement": "T1 relaxation time", "setting": "[2]; [26]", "result": 84, "unit": "ms"}, {"measurement": "T2 relaxation time", "setting": "[2]; [26]", "result": 39, "unit": "ms"}, {"measurement": "Approximate ED50, intravenous dose to reduce tissue T1 by 50%", "setting": "[2]; Heart, rabbits, 15 min", "result": 0.037, "unit": "mmol/kg"}, {"measurement": "Approximate ED50, intravenous dose to reduce tissue T2 by 50%", "setting": "[2]; Heart, rabbits, 15 min", "result": 0.38, "unit": "mmol/kg"}, {"measurement": "T1 relaxation time", "setting": "[2]; [27]", "result": 245, "unit": "ms"}, {"measurement": "T2 relaxation time", "setting": "[2]; [27]", "result": 65, "unit": "ms"}, {"measurement": "T1 relaxation time", "setting": "[2]; [28]", "result": 155, "unit": "ms"}, {"measurement": "T2 relaxation time", "setting": "[2]; [28]", "result": 52, "unit": "ms"}, {"measurement": "T1 relaxation time", "setting": "[2]; [29]", "result": 123, "unit": "ms"}, {"measurement": "T2 relaxation time", "setting": "[2]; [29]", "result": 43, "unit": "ms"}, {"measurement": "T1 relaxation time", "setting": "[2]; [30]", "result": 166, "unit": "ms"}, {"measurement": "T2 relaxation time", "setting": "[2]; [30]", "result": 53, "unit": "ms"}, {"measurement": "Approximate ED50, intravenous dose to reduce tissue T1 by 50%", "setting": "[2]; [31]", "result": 0.050, "unit": "mmol/kg"}, {"measurement": "Approximate ED50, intravenous dose to reduce tissue T2 by 50%", "setting": "[2]; [31]", "result": 0.19, "unit": "mmol/kg"}, {"measurement": "T1 relaxation time", "setting": "[2]; [32]", "result": 92, "unit": "ms"}, {"measurement": "T2 relaxation time", "setting": "[2]; [32]", "result": 41, "unit": "ms"}, {"measurement": "T1 relaxation time", "setting": "[2]; [33]", "result": 49, "unit": "ms"}, {"measurement": "T2 relaxation time", "setting": "[2]; [33]", "result": 25, "unit": "ms"}, {"measurement": "T1 relaxation time", "setting": "[2]; [34]", "result": 28, "unit": "ms"}, {"measurement": "T2 relaxation time", "setting": "[2]; [34]", "result": 18, "unit": "ms"}, {"measurement": "T1 relaxation time", "setting": "[2]; [35]", "result": 143, "unit": "ms"}, {"measurement": "T2 relaxation time", "setting": "[2]; [35]", "result": 87, "unit": "ms"}, {"measurement": "Approximate ED50, intravenous dose to reduce tissue T2 by 50%", "setting": "[2]; Liver, rabbits, 15 min", "result": 0.04, "unit": "mmol/kg"}, {"measurement": "Approximate ED50, intravenous dose to reduce tissue T1 by 50%", "setting": "[2]; Liver, rabbits, 15 min, listed as Dihydrogen Bis(N-[N′-(2,6-dimethylphenyl)carbamoylmethyl]iminodiaceto)manganese(, Trihydrate)", "result": 0.0067, "unit": "mmol/kg"}, {"measurement": "Approximate ED50, intravenous dose to reduce tissue T1 by 50%", "setting": "[2]; Liver, rabbits, 15 min, listed as dihydrogen bis(N-[N′-(2,6-dimethylphenyl)carbamoylmethyl]-iminodiaceto)manganese, Trihydrate", "result": "less than 0.01 mmol/kg"}, {"measurement": "T1 relaxation time", "setting": "[2]; Lung, 15 min after 0.01 mmol/kg i.v., rabbits", "result": 464, "unit": "ms"}]}]}
